From US20220048939A1, “AROMATIC RING COMPOUND” (HAIKOU KAIBAO INDUSTRIAL CO., LTD, priority 2019, published 2022)

Columns and labels:
[1] = system: KM mice (tail suspension model of behavioral despair); test: Tail suspension test after single intraperitoneal injection; format: in vivo; conditions: tail suspension test 0.5 h after administration, last 4 min, mean ± SEM
Protocol: (§1) The experimental animals were male SPF grade KM mice purchased from Kunming Medical University, weighed 21-24 g, certificate no. SCXK(Dian)K2015-0002. The experimental animals were bred in individually ventilated cages (IVCs) in animal room in Dianqing Biotechnology, Ltd., Yunnan (facility no. 13-11-078 and 13-11-079; manufacture date: Nov. 24, 2013). The room temperature was controlled at 22-24° C. with humidity at 40-70% and 12-hour light/dark cycle (7:00 am/19:00 pm). The cages and padding were changed twice a week. The raising method was group raising and there were 10 mice accommodated in each cage. The feed was sterilized feed from Jiangsu Xietong Medical Bioengineering, Ltd., certificate no.: (2014)01008. Feed was supplied once daily with free access. Tap water was supplied in boxes with free access.
A. Behavioral testing was performed in different treatment groups (1.0 mg/kg, 5.0 mg/kg, 10.0 mg/kg, 20.0 mg/kg) 0.5 h after intraperitoneal (i.p.) injection of the compound of formula 1;
B. In the control group receiving normal saline (NS), the behavioral testing was conducted at the same time;
C. In the control group receiving imipramine (IMI; 15 mg/kg), the behavioral testing was conducted at the same time;
Route of administration: The test compound of formula 1, normal saline or imipramine was administered by intraperitoneal injection according to the experimental design.
Time of administration: The animals were accommodated to the experimental environment for 1 hour, administrated by intraperitoneal injection and subjected to tail suspension test 0.5 hour after the administration.
Test criterion: The mice were subjected to a 6-minute tail suspension test, and the cumulative time of immobility in the first 2 minutes and the last 4 minutes was recorded. The criterion for immobility was that the mouse stops struggling and remains steady.
(§2) A depression model of behavioral despair, ie. tail suspension model, was used. Animals were accommodated to the company's breeding environment for 1 day. During the adaptation, animals with non-smooth and unclean hair, high alertness or aggressivity were excluded.
(§3) Animals were accommodated to the experimental environment for 1 hour, weighed, and randomized according to the body weight into a normal saline control group, an imipramine control group and treatment groups with different doses.
(§4) In the tail suspension test, animals in all groups for tail suspension test were administered with corresponding drugs by a single intraperitoneal injection. 0.5 h after the administration, tails of mice were fixed with medical tape at about 1-2 cm from the end, such that the mice were hanged in the tail suspension box with the heads about 10 cm above the bottom of the box. The observation started immediately after hanging. In the 6-minute observation, the cumulative time of immobility in the first 2 minutes and the last 4 minutes was recorded. A video was recorded with obviously contrasted background with the hair color of the mice, for example, black background was used for white mice.
(§5) The cumulative time of immobility within the last 4 minutes was compared between the test compound groups and the normal saline group using SPSS 11.0 software. One-way analysis of variance (ANOVA) was used for comparison among multiple groups, and independent sample T test was performed for comparisons in pairs. P <0.05 indicates a statistically significant difference. All statistical diagrams were plotted in mean ±SEM using Origin 8.0 software.

[2] = Solubility in water (description of test compound); format: physicochemical
NMDA receptor = test: Whole-cell NMDAR current (NMDAR-EPSC) recording in hippocampal CA1 pyramidal cells of brain slices; format: cell-based, mice; conditions: hippocampal CA1 pyramidal cells at +40 mV, last 10 min of 20 min
Protocol: Male C57BL/6 mice, aged 3-9 weeks, were purchased from Beijing Vital River Laboratory Animal Technology Co., Ltd. (Beijing, China). The animals were bred at 23 ±1° C. The room temperature was controlled at 22-24° C. with humidity at 40-70% and 12-hour light/dark cycle (7:00 am/19:00 pm).
A. The baseline whole-cell NMDAR current was recorded in 10 minutes before the compound of formula 1 (0.76, 3.8 mM/L) was dissolved in artificial cerebrospinal fluid (vehicle) and added with the brain slice circulation fluid.
B. An identical volume of artificial cerebrospinal fluid (vehicle) was added with the brain slice circulation fluid.
Treatment: The brain slice circulation fluid was directly added.
Time of treatment: 10 minutes after baseline recording.
Test item: depolarization voltage-induced whole-cell NMDAR receptor currents.
Hippocampal brain slices: The animals were anesthetized with isoflurane and the brains were collected quickly. […]
Whole-cell NMDAR current recording: NMDAR whole cell EPSC recording was performed in hippocampal CA1 pyramidal cells. […] The electrical signal in whole cells was recorded using a Clampfit 10.3 software (Axon Instruments) equipped with an Axopatch-700B amplifier (Axon Instruments, Foster City, Calif.) and a Digiclata 1440A digital-to-analog converter, with filtering set at 2.8 kHz and sampling at 10 kHz. […]

[3] = system: KM mice (tail suspension model of behavioral despair); test: Tail suspension test after single intragastric (oral) administration; format: in vivo; conditions: tail suspension test 1 h after administration, last 4 min, mean ± SEM
Protocol: as §1, with “with free access . Tap water” for “with free access. Tap water”
A. Behavioral testing was performed in different treatment groups (1.0 mg/kg, 5.0 mg/kg, 10.0 mg/kg, 15.0 mg/kg, 30.0 mg/kg) 1 h after intragastric (i.g.) administration of the compound of formula 1;
B. In the negative control group receiving normal saline (NS), the behavioral testing was conducted at the same time;
C. In the positive control group receiving imipramine (IMI; 15 mg/kg), the behavioral testing was conducted at the same time;
Route of administration: The test compound of formula 1, normal saline or imipramine was administered by intragatric administration according to the experimental design.
Time of administration: The animals were accommodated to the experimental environment for 1 hour, administrated by intragatric administration, and subjected to tail suspension test 1 hour after the administration.
Test criterion: The mice were subjected to a 6-minute tail suspension test, and the cumulative time of immobility in the first 2 minutes and the last 4 minutes was recorded. The criterion for immobility is that the mouse stops struggling and remains steady.
as §2, §3
as §4, with “groups” for “groups for tail suspension test”, “intragastric administration. 1” for “intraperitoneal injection. 0.5”
as §5

| Structure (SMILES) | Time of immobility (% of NS) ([1]; 1 mg/kg i.p.) | Time of immobility (% of NS) ([1]; 5 mg/kg i.p.) | Time of immobility (% of NS) ([1]; 10 mg/kg i.p.) | Time of immobility (% of NS) ([1]; 20 mg/kg i.p.) | Solubility in water [2] | NMDAR current (% of Baseline) (NMDA receptor; 0.76 mM/L in circulating artificial cerebrospinal fluid) | NMDAR current (% of Baseline) (NMDA receptor; 3.8 mM/L in circulating artificial cerebrospinal fluid) | Time of immobility (% of NS) ([3]; 1 mg/kg i.g.) | Time of immobility (% of NS) ([3]; 5 mg/kg i.g.) | Time of immobility (% of NS) ([3]; 10 mg/kg i.g.) | Time of immobility (% of NS) ([3]; 15 mg/kg i.g.) | Time of immobility (% of NS) ([3]; 30 mg/kg i.g.) | Time of immobility (% of NS) ([1]; 15 mg/kg i.p.) |
| --- | --- | --- | --- | --- | --- | --- | --- | --- | --- | --- | --- | --- | --- |
| Cc1ccc(O[C@@H]2OC(CO)[C@@H](O)[C@H](O)C2O)cc1O[C@@H]1OC(CO)[C@@H](O)[C@H](O)C1O (some centres unmarked) [Compounds of formula 1] | 104.02 ± 16.80 % of NS | 72.12 ± 8.57 % of NS | 60.44 ± 7.53 % of NS | 104.66 ± 14.75 % of NS | easily soluble in water | 108.80 ± 5.86 % of Baseline | 155.53 ± 20.85 % of Baseline | 87.14 ± 11.27 % of NS | 72.67 ± 7.89 % of NS | 66.86 ± 8.80 % of NS | 68.33 ± 7.17 % of NS | 77.38 ± 6.00 % of NS | – |
| CN(C)CCCN1c2ccccc2CCc2ccccc21 [IMI, imipramine, reference compound] | – | – | – | – | – | – | – | – | – | – | 58.64 ± 5.42 % of NS | – | 58.12 ± 5.66 % of NS |
